Measurements as given in ChEMBL document CHEMBL1201862, “PubChem BioAssay data set” (2004).
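Test compounds were applied to cells in 96-well plates for 48 hours at 5 doses. GI50 is the concentration that inhibits growth by half.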 Active and inactive are the calls of the source. Cut-off read from the data, not from the text of the source: active = GI50 up to about 1.1 µM and inactive = higher.

Legend:
Assay in all cases: DTP human tumour cell line panel, 48 h
UO-31 = system: UO-31
SF-295 = system: SF-295
NCI-H23 = system: NCI-H23
UACC-62 = system: UACC-62
NCI-H522 = system: NCI-H522
CAKI-1 = system: CAKI-1
HL-60 = system: HL-60
SR = system: SR
OVCAR-3 = system: OVCAR-3
DMS-114 = system: DMS-114
HT-29 = system: HT-29
HCT-15 = system: HCT-15
DMS-273 = system: DMS-273
HOP-18 = system: HOP-18
NCI-H460 = system: NCI-H460
U-251 = system: U-251
SK-MEL-2 = system: SK-MEL-2
HOP-92 = system: HOP-92
786-0 = system: 786-0
UACC-257 = system: UACC-257
KM-20L2 = system: KM-20L2
SN12C = system: SN12C
MOLT-4 = system: MOLT-4
KM12 = system: KM12
M19-MEL = system: M19-MEL
NCI-H226 = system: NCI-H226
CCRF-CEM = system: CCRF-CEM
RXF 393 = system: RXF 393
LOX IMVI = system: LOX IMVI
IGROV-1 = system: IGROV-1
OVCAR-8 = system: OVCAR-8
OVCAR-4 = system: OVCAR-4
SK-OV-3 = system: SK-OV-3
K562 = system: K562
TK-10 = system: TK-10
HCT-116 = system: HCT-116
A549 = system: A549
SF-539 = system: SF-539
SW-620 = system: SW-620
OVCAR-5 = system: OVCAR-5
SNB-78 = system: SNB-78
SK-MEL-28 = system: SK-MEL-28
SK-MEL-5 = system: SK-MEL-5
SF-268 = system: SF-268
DLD-1 = system: DLD-1
LXFL 529 = system: LXFL 529
SNB-75 = system: SNB-75
M14 = system: M14
HOP-62 = system: HOP-62
ACHN = system: ACHN
Malme-3M = system: Malme-3M
COLO 205 = system: COLO 205
RPMI-8226 = system: RPMI-8226

COc1cc(C(C#N)NNC(=O)Cc2ccccc2)cc(OC)c1OC (stereo unspecified)
GI50 (UO-31): 72.3 µM (inactive)
GI50 (SF-295): > 100 µM (inactive)
GI50 (NCI-H23): > 100 µM (inactive)
GI50 (UACC-62): > 100 µM (inactive)
GI50 (NCI-H522): > 100 µM (inactive)
GI50 (CAKI-1): > 100 µM (inactive)
GI50 (HL-60): > 100 µM (inactive)
GI50 (SR): > 100 µM (inactive)
GI50 (OVCAR-3): > 100 µM (inactive)
GI50 (DMS-114): 99.1 µM (inactive)
GI50 (HT-29): > 100 µM (inactive)
GI50 (HCT-15): > 100 µM
GI50 (DMS-273): > 100 µM (inactive)
GI50 (HOP-18): > 100 µM (inactive)
GI50 (NCI-H460): > 100 µM (inactive)
GI50 (U-251): > 100 µM (inactive)
GI50 (SK-MEL-2): > 100 µM (inactive)
GI50 (HOP-92): 95.3 µM (inactive)
GI50 (786-0): > 100 µM (inactive)
GI50 (UACC-257): > 100 µM (inactive)
GI50 (KM-20L2): > 100 µM (inactive)
GI50 (SN12C): > 100 µM (inactive)
GI50 (MOLT-4): > 100 µM (inactive)
GI50 (KM12): > 100 µM (inactive)
GI50 (M19-MEL): > 100 µM (inactive)
GI50 (NCI-H226): > 100 µM (inactive)
GI50 (CCRF-CEM): > 10 µM (inactive)
GI50 (RXF 393): > 100 µM (inactive)
GI50 (LOX IMVI): > 100 µM (inactive)
GI50 (IGROV-1): > 100 µM (inactive)
GI50 (OVCAR-8): > 100 µM (inactive)
GI50 (OVCAR-4): > 100 µM (inactive)
GI50 (SK-OV-3): > 100 µM (inactive)
GI50 (K562): > 100 µM (inactive)
GI50 (TK-10): > 100 µM (inactive)
GI50 (HCT-116): > 100 µM (inactive)
GI50 (A549): > 100 µM (inactive)
GI50 (SF-539): > 100 µM (inactive)
GI50 (SW-620): > 100 µM (inactive)
GI50 (OVCAR-5): > 100 µM (inactive)
GI50 (SNB-78): > 100 µM (inactive)
GI50 (SK-MEL-28): > 100 µM (inactive)
GI50 (SK-MEL-5): > 100 µM (inactive)
GI50 (SF-268): > 100 µM (inactive)
GI50 (DLD-1): > 100 µM (inactive)
GI50 (LXFL 529): > 100 µM (inactive)
GI50 (SNB-75): 35.5 µM (inactive)
GI50 (M14): > 100 µM (inactive)
GI50 (HOP-62): > 100 µM (inactive)
GI50 (ACHN): > 100 µM (inactive)
GI50 (Malme-3M): > 100 µM (inactive)
GI50 (COLO 205): > 100 µM (inactive)
GI50 (RPMI-8226): > 100 µM (inactive)

Cc1cc(O)nc(NNC(C#N)c2cccc([N+](=O)[O-])c2)n1 (stereo unspecified)
GI50 (UO-31): 73.1 µM (inactive)
GI50 (SF-295): > 100 µM (inactive)
GI50 (NCI-H23): > 100 µM (inactive)
GI50 (UACC-62): > 100 µM (inactive)
GI50 (NCI-H522): > 100 µM (inactive)
GI50 (CAKI-1): > 100 µM (inactive)
GI50 (HL-60): > 100 µM (inactive)
GI50 (SR): 74 µM (inactive)
GI50 (OVCAR-3): > 100 µM (inactive)
GI50 (DMS-114): > 100 µM (inactive)
GI50 (HT-29): > 100 µM (inactive)
GI50 (HCT-15): > 100 µM
GI50 (DMS-273): > 100 µM (inactive)
GI50 (HOP-18): > 100 µM (inactive)
GI50 (NCI-H460): > 100 µM (inactive)
GI50 (U-251): > 100 µM (inactive)
GI50 (SK-MEL-2): > 100 µM (inactive)
GI50 (HOP-92): > 100 µM (inactive)
GI50 (786-0): > 100 µM (inactive)
GI50 (UACC-257): > 100 µM (inactive)
GI50 (KM-20L2): > 100 µM (inactive)
GI50 (SN12C): > 100 µM (inactive)
GI50 (MOLT-4): > 100 µM (inactive)
GI50 (KM12): > 100 µM (inactive)
GI50 (M19-MEL): > 100 µM (inactive)
GI50 (NCI-H226): > 100 µM (inactive)
GI50 (CCRF-CEM): > 100 µM (inactive)
GI50 (RXF 393): > 100 µM (inactive)
GI50 (LOX IMVI): > 100 µM (inactive)
GI50 (IGROV-1): > 100 µM (inactive)
GI50 (OVCAR-8): > 100 µM (inactive)
GI50 (OVCAR-4): > 100 µM (inactive)
GI50 (SK-OV-3): > 100 µM (inactive)
GI50 (K562): > 100 µM (inactive)
GI50 (TK-10): > 100 µM (inactive)
GI50 (HCT-116): > 100 µM (inactive)
GI50 (A549): > 100 µM (inactive)
GI50 (SF-539): > 100 µM (inactive)
GI50 (SW-620): > 100 µM (inactive)
GI50 (OVCAR-5): > 100 µM (inactive)
GI50 (SNB-78): > 100 µM (inactive)
GI50 (SK-MEL-28): > 100 µM (inactive)
GI50 (SK-MEL-5): > 100 µM (inactive)
GI50 (SF-268): > 100 µM (inactive)
GI50 (DLD-1): > 100 µM (inactive)
GI50 (LXFL 529): > 100 µM (inactive)
GI50 (SNB-75): 65.3 µM (inactive)
GI50 (M14): > 100 µM (inactive)
GI50 (HOP-62): > 100 µM (inactive)
GI50 (ACHN): > 100 µM (inactive)
GI50 (Malme-3M): > 100 µM (inactive)
GI50 (COLO 205): > 100 µM (inactive)
GI50 (RPMI-8226): > 100 µM (inactive)
